# Read-outs that look alike come from different tables or passages of the source.
# Legend:
# [1] = Pharmacokinetic evaluation in beagle dogs; assay type: in vivo; conditions: male, dog, plasma; for AUC(0-t): read-out: Area under curve AUC0-t; for half-life: read-out: Half-life T1/2 (converted)
# Method: Beagle, male, 13 to 14 months old, purchased from Beijing Mas Biotechnology Co., Ltd.
# Intravenous injection group: an appropriate amount of the compound to be tested was weighed, and an appropriate amount of DMA:30% Solutol HS-15:Saline=5:5:90 (v/v/v) was added, vortexed, and a solution with a final concentration of 0.5 mg/mL was prepared.
# Intragastric administration group: an appropriate amount of the compound to be tested was weighed, and an appropriate amount of DMA:30% Solutol HS-15:Saline=5:5:90 (v/v/v) was added, vortexed, and a solution with a final concentration of 1 mg/mL was prepared.
# The beagle dogs were divided into intravenous injection group (3 dogs/group) and intragastric administration group (3 dogs/group) according to the compound to be tested.
# Intravenous injection group: dogs were fasted overnight and then administered by intravenous injection (administration dosage was 0.5 mg/kg, and administration volume was 1 mL/kg), and ate 4 hours after administration. […]
# Intravenous injection group: about 0.5 mL of blood was collected through jugular vein into EDTA-K2 anticoagulant tubes at 0.083 hour, 0.25 hour, 0.5 hour, 1 hour, 2 hours, 4 hours, 8 hours and 24 hours after administration. […] The collected plasma sample was stored at −40˜−20° C. before analysis.
# Intragastric administration group: about 0.5 mL of blood was collected through jugular vein into EDTA-K2 anticoagulant tubes at 0.25 hour, 0.5 hour, 1 hour, 2 hours, 4 hours, 8 hours and 24 hours after administration. […] The collected plasma sample was stored at −40˜−20° C. before analysis.
# LC-MS/MS was used to determine the content of the compound to be tested in dog plasma after intravenous injection and intragastric administration of the compound.
# [2] = test system: human lung cancer NCI-H2122 subcutaneous xenotransplanted tumor; test: Pharmacodynamic evaluation in nude mouse subcutaneous xenotransplanted model of human lung cancer NCI-H2122; assay type: in vivo, Balb/c nude mouse
# Method: The anti-tumor effect and safety of compound 11 of the present invention were evaluated in a Balb/c nude mouse animal model of subcutaneous xenotransplanted NCI-H2122.
# BALB/c; nude mice, female, 6-7 weeks old (the age of mice when tumor cells were inoculated), purchased from Jiangsu Jicui Yaokang Biotechnology Co., Ltd.
# The solvent control group was given DMSO:castor oil:5% glucose injection=20:10:70 (v/v/v).
# (§1) AMG-510: an appropriate amount of AMG-510 was weighed, and an appropriate amount of DMSO:castor oil:5% glucose injection=20:10:70 (v/v/v) was added. After the above mixture was fully dissolved, an appropriate amount of 1 M hydrochloric acid was added, vortexed and mixed to prepare a solution with a concentration of 3 mg/mL.
# as §1, with “Compound 11:” for “AMG-510:”, “compound 11” for “AMG-510”
# H2122 cells were cultured in 1640 culture medium containing 10% fetal bovine serum and 1% penicillin-streptomycin-amphotericin B solution. H2122 cells in the exponential growth phase were collected and resuspended in matrigel solution (matrigel:PBS=1:1 (V/V)) to a suitable concentration for subcutaneous tumor inoculation in nude mice.
# Female Balb/c nude mice were subcutaneously inoculated with about 3.0×10^6H2122 cells on the right sides of their backs. When the average volume of the tumors reaches about 150-200 mm^3, the mice were randomly divided according to the tumor sizes with 6 mice in each group.
# • Group 1 (G1), solvent control group; • Group 2 (G2), AMG-510 was given by intragastric administration at a dose of 30 mg/kg; • Group 3 (G3), Example 11 was given by intragastric administration at a dose of 30 mg/kg; • Group 4 (G4), AMG-510 and Example 11 were administered in combination, and the dosages were respectively: AMG-510, 30 mg/kg (QD); Example 11, 30 mg/kg (QD).
# After tumor inoculation, routine monitoring included the effects of tumor growth and treatment on the normal behaviors of the animals, specifically the mobility, feeding and drinking, weight gain or loss, eyes, coat and other abnormalities of the experimental animals.
# Calculation formulae for a relative tumor volume (RTV), a relative tumor proliferation rate (T/C) and a tumor inhibition percentage (IR) were as follows: • (1) TV (tumor volume)=½×a×b^2, wherein a and b represent the length and width of the tumor respectively; • (2) RTV (relative tumor volume)=Vt/Vo, wherein Vo is the tumor volume measured at the time of administration when grouping (i.e. do), and Vt is the tumor volume at each measurement; • (3) relative tumor proliferation rate T/C (%)=TRTV/CRTV×100%, wherein TRTV is the RTV of the treatment group and CRTV is the RTV of the control group; • (4) Tumor growth inhibition rate TGI(%)=(1−T/C)×100%; wherein, T and C are the relative tumor volumes of the treatment group and the control group at a specific time point. • (5) IR (%)=(1−TWt/TWc)×100%, wherein, TWt is the tumor weight of the treatment group and TWc is the tumor weight of the control group. The anti-tumor evaluation criteria are (cytotoxic drugs): T/C(%)>40% is invalid; T/C(%)≤40%, and after statistical processing, P<0.05 is effective.
# [3] = 16 days after administration, 30 mg/kg each agent
# [4] = end of the experiment, 30 mg/kg each agent
compound,measurement,setting,value
"COc1cc2nc(C)nc(N[C@H](C)c3cccc(C#N)c3C)c2cc1N1CCC(C)(O)CC1 [Compound 11, (R)-3-(1-((6-(4-hydroxy-4-methylpiperidin-1-yl)-7-methoxy-2-methylquinazolin-4-yl)amino)ethyl)-2-methylbenzonitrile]",bioavailability,"[1]; Oral 2 mg/kg vs injection 0.5 mg/kg, read-out: Bioavailability F",127%
same,AUC(0-t),[1]; Oral 2 mg/kg,3.51 ± 1.75 µg·h/mL
same,half-life,[1]; Oral 2 mg/kg,4.21 ± 0.943 h
same,Cmax,"[1]; Oral 2 mg/kg, read-out: Plasma concentration Cmax",0.456 ± 0.149 µg/mL
same,AUC(0-t),"[1]; iv, injection 0.5 mg/kg",0.693 ± 0.183 µg·h/mL
same,half-life,"[1]; iv, injection 0.5 mg/kg",2.81 ± 0.45 h
same,Relative tumor volume (x ± S),[2]; [3],4.03 ± 0.67
same,TGI %,[2]; [3],20.7%
same,Tumor volume (x ± S),"[2]; Day 0 after administration, 30 mg/kg each agent, intragastric",199 ± 18 mm^3
same,Tumor volume (x ± S),"[2]; Day 3 after administration, 30 mg/kg each agent, intragastric",329 ± 36 mm^3
same,Tumor volume (x ± S),"[2]; Day 7 after administration, 30 mg/kg each agent, intragastric",460 ± 53 mm^3
same,Tumor volume (x ± S),"[2]; Day 10 after administration, 30 mg/kg each agent, intragastric",551 ± 60 mm^3
same,Tumor volume (x ± S),"[2]; Day 14 after administration, 30 mg/kg each agent, intragastric",704 ± 88 mm^3
same,Tumor volume (x ± S),"[2]; Day 16 after administration, 30 mg/kg each agent, intragastric",757 ± 90 mm^3
same,Tumor volume (x ± S),"[2]; Table 11, 16 days after administration, 30 mg/kg each agent, in mm³",757 ± 90
same,Inhibition rate of tumor weight (%),[2]; [4],16.8%
same,Tumor weight (g) (x ± S),[2]; [4],0.6283 ± 0.0663 g
same,anti-tumor activity (conclusion in words),"[2]; under the combination with AMG-510, KRAS-G12C inhibitor non-sensitive cell line NCI-H2122",good anti-tumor activity
